Measured values as given in paper PMC8482815, “Targeting Host Glycolysis as a Strategy for Antimalarial Development” (Frontiers in Cellular and Infection Microbiology, 2021).
Like-named read-outs stand apart in the source and are kept apart here.

Tests used:
P. falciparum strain 3D7 = test: Plasmodium falciparum growth inhibition assay (Picogreen DNA content, three-day incubation); format: cell-based; conditions: for S.I. + pyruvate (Supplemental Table 4): MetHb EC50 / parasite EC50, with pyruvate; for S.I. - pyruvate (Supplemental Table 4): MetHb EC50 / parasite EC50, without pyruvate; for S.I. Fold Change (Supplemental Table 4): change in S.I. with versus without pyruvate
Method: (§1) Banked blood (Saint Louis Children’s Hospital) and fresh blood [healthy donors] was washed and stored at 50% hematocrit at 4°C up to 1 month past the clinical expiration date and collection date, respectively. Parasite strains provided by the Malaria Research and Reference Reagent Resource Center (MR4) as follows: 3D7 (MRA-102); K1 (MRA-159); D10 (MRA-201); and IPC-5202 (MRA-1240). Unless indicated, erythrocytes were cultured as previously described at 2% hematocrit in complete media (incomplete media supplemented with 27mM sodium bicarbonate, 11mM glucose, 5mM HEPES, 1mM sodium pyruvate, 0.37mM hypoxanthine, 0.01mM thymidine, 10µg/mL gentamicin, and 0.5% Albumax I (Thermo-Fisher) under 5% O2/5% CO2/90% N2 atmosphere at 37°C ([Guggisberg et al., 2014]).
(§2) Asynchronous cultures diluted to 1% parasitemia in 100μL wells were subjected to drug dilutions, solvent controls, and untreated uninfected erythrocyte controls in technical duplicates. Following a three-day incubation, DNA content was quantified using Picogreen (Life Technologies), as previously described ([Corbett et al., 2004]). Half-maximal effective concentrations (EC50) were determined from nonlinear regression of three biological replicates (GraphPad Prism).

human erythrocytes = test: Detection and quantification of MetHb formation in cultured erythrocytes; format: cell-based; conditions: MetHb formation, 500 = highest concentration tested
Method: as §1
MetHb was detected by measuring absorbance in the 630-640nm range, which is specific from other hemoglobin subforms (oxyhemoglobin, deoxyhemoglobin, and carboxyhemoglobin). Supernatants were removed and erythrocyte pellets were fully lysed and diluted, as described above. The absorption peak for oxyhemoglobin (575nm) and MetHb (630nm) were measured and the EC50 of MetHb formation was determined using non-linear regression analysis (GraphPad Prism).

P. falciparum = test system: P. falciparum; set-up: method as in Vennerstrom et al., 1999; Phillips et al., 2015; conditions: ref Vennerstrom et al., 1999; Phillips et al., 2015; read-out: EC50, in vitro potency of other antimalarial compounds; cited from earlier work
[1] = test system: luciferase-expressing P. berghei ANKA parasites; test: In vivo efficacy against blood stage parasite burden (luciferase imaging); set-up: species or system Swiss-Webster mice; conditions: i.p. daily for five days; 30mg/kg POM-HEX, 5mg/kg POM-SF
Method: (§3) Groups of five female Swiss-Webster mice were injected intraperitoneally (i.p.) with 10^3 luciferase-expressing P. berghei ANKA parasites ([Franke-Fayard et al., 2008]). Forty-eight hours post infection, mice were injected i.p. daily for five days with either 200µL of 2% methylcellulose/0.5% Tween80, 40mg/kg chloroquine, 100mg/kg HEX, 30mg/kg POM-HEX, or 5mg/kg POM-SF. Enolase inhibitors dosing were selected as approximately 3-fold lower than the maximum acutely tolerated dose for each compound by i.p. injection. Day 7 post-infection, mice were injected with 150mg/kg D-luciferin potassium salt in PBS (GoldBio) and imaged on an IVIS 100 and parasite burden assessed (Xenogen LivingImage).

[2] = test system: P. falciparum IPC-5202 (chloroquine and artemisinin resistant); test: Plasmodium falciparum growth inhibition assay, drug-resistant line IPC-5202; format: cell-based; conditions: chloroquine and artemisinin resistant, means ± s.e.m, read-out: EC50 (nM), P. falciparum IPC-5202
Method: (§4) Banked blood (Saint Louis Children’s Hospital) and fresh blood [healthy donors] was washed and stored at 50% hematocrit at 4°C up to 1 month past the clinical expiration date and collection date, respectively. Parasite strains provided by the Malaria Research and Reference Reagent Resource Center (MR4) as follows: 3D7 (MRA-102); K1 (MRA-159); D10 (MRA-201); and IPC-5202 (MRA-1240). […]
as §2, with “Prism). […]” for “Prism).”
(§5) Supplemental Table 5. […] Half-maximal inhibitor concentrations (EC50s) were determined for drug resistant malaria parasites and compared to the sensitive 3D7 strain. The respective EC50s are calculated from each of the independent biological replicates using a non-linear regression of the log of the inhibitor concentration with data from each technical replicate normalized to maximal and minimal growth using the software package GraphPad Prism. […]
(§6) means ± s.e.m calculated from three biological replicates.

[3] = test system: P. falciparum K1 (chloroquine and sulfadoxine-pyrimethamine resistant); test: Plasmodium falciparum growth inhibition assay, drug-resistant line K1; format: cell-based; conditions: K1, chloroquine and sulfadoxine-pyrimethamine resistant, means ± s.e.m, read-out: EC50 (nM), P. falciparum K1
Method: as §4
as §2, with “Prism). […]” for “Prism).”
as §5, §6

[4] = test system: P. falciparum D10 (mefloquine resistant); test: Plasmodium falciparum growth inhibition assay, drug-resistant line D10; format: cell-based; conditions: D10, mefloquine resistant, means ± s.e.m, read-out: EC50 (nM), P. falciparum D10
Method: as §4
as §2, with “Prism). […]” for “Prism).”
as §5, §6

P. berghei ANKA = format: in vivo, Swiss Webster mice; conditions: 2DG 200 mg/kg
Method: as §3
The glucose mimetic 2-DG and enolase inhibitors POM-HEX, and HEX were evaluated in the P. berghei mouse model of cerebral malarial, as previously described ([Wang et al., 2018]). Briefly, in addition to groups of mice (n = 5) dosed as described above for POM-HEX and HEX, 2-DG was administered to an additional group (n = 5) at 200mg/kg twice daily and all were monitored for survival, parasitemia (blood smear Giemsa), and clinical signs of cerebral malaria (paralysis, deviation of the head, ataxia, convulsions, and coma) over 15 days.

[5] = P. falciparum growth, with pyruvate, read-out: Parasite EC50 + pyruvate (Supplemental Table 4)
[6] = P. falciparum growth, without pyruvate, 500 = highest concentration tested, read-out: Parasite EC50 - pyruvate (Supplemental Table 4)
[7] = with pyruvate, read-out: MetHb EC50 + pyruvate (Supplemental Table 4)
[8] = without pyruvate, read-out: MetHb EC50 - pyruvate (Supplemental Table 4)

Row | SMILES | S.I. + pyruvate (Supplemental Table 4) (P. falciparum strain 3D7) | S.I. - pyruvate (Supplemental Table 4) (P. falciparum strain 3D7) | EC50 (P. falciparum strain 3D7; [5]) [nM] | EC50 (P. falciparum strain 3D7; [6]) [nM] | S.I. Fold Change (Supplemental Table 4) (P. falciparum strain 3D7) | EC50 (human erythrocytes; [7]) [µM] | EC50 (human erythrocytes; [8]) [µM] | also measured
1 | O=C1C(P2(=O)NCCCO2)CCCN1O (centres unmarked) [PKM J45] | 5.3 | 14.3 | 94000 ± 4700 | 35000 ± 3100 | 0.4 | > 500 | > 500 | 
2 | CC(C)OC(=O)OCOP(=O)(OCOC(=O)OC(C)C)C1CCCN(O)C1=O (centres unmarked) [Compound J52] | 0.3 | 0.3 | 1600 ± 4000 | 2900 ± 400 | 1.2 | 0.49 ± 0.02 | 0.77 ± 0.04 | 
3 | O=C1C(P(=O)(O)O)CCN1O (centres unmarked) [DeoxySF-2312] | 16.7 | 6.3 | 30000 ± 9700 | 80000 ± 2000 | 2.7 | > 500 | > 500 | selectivity for antiparasitic activity over erythrocyte toxicity (in words) (P. falciparum strain 3D7; parasite growth versus MetHb formation): notably selective
4 | CC(=O)ON1CCCC(P(=O)(OCOC(=O)C(C)(C)C)OCOC(=O)C(C)(C)C)C1=O (centres unmarked) [SDR23] | 1.6 | 0.6 | 1600 ± 110 | 2100 ± 250 | 2.5 | 2.5 ± 0.34 | 1.3 ± 0.07 | 
5 | COc1cc(C)c2c(Oc3cccc(C(F)(F)F)c3)c(OC)cc(NC(C)CCCN)c2n1 (centres unmarked) [tafenoquine] |  |  |  |  |  |  |  | EC50 (P. falciparum): 436 nM
6 | CC(C)(C)C(=O)OCOP(=O)(OCOC(=O)C(C)(C)C)C1CC(O)N(O)C1=O (centres unmarked) [POM-SF] | 1.9 | 0.1 |  |  | 13.6 |  |  | EC50 (P. falciparum strain 3D7; Plasmodium falciparum, 3D7, 72 h, P. falciparum growth, presence of 1mM pyruvate, mean ± s.e.m., read-out: Parasite EC50 + pyruvate): 250 ± 10 nM; EC50 (P. falciparum strain 3D7; Plasmodium falciparum, 3D7, P. falciparum growth, absence of 1mM pyruvate, mean ± s.e.m., 500 = highest concentration tested, EC50 not resolved, read-out: Parasite EC50 - pyruvate): 710 ± 40 nM; EC50 (P. falciparum strain 3D7; Plasmodium falciparum, 3D7, means ± s.e.m, three biological replicates, read-out: EC50 (nM), P. falciparum 3D7 (pan-sensitive)): 185 ± 18 nM; T.I. Fold change (P. falciparum strain 3D7; change in T.I. with versus without 1mM pyruvate): 13.6; T.I. + pyruvate (P. falciparum strain 3D7; therapeutic index = [EC50 for MetHb formation]/[EC50 for parasite growth inhibition], with 1mM pyruvate): 1.9; T.I. - pyruvate (P. falciparum strain 3D7; therapeutic index = [EC50 for MetHb formation]/[EC50 for parasite growth inhibition], without pyruvate): 0.1; effect on parasite burden (in words) [1]: does not forestall a lethal parasite burden; EC50 [2]: 321 ± 11 nM; EC50 (human erythrocytes; Homo sapiens, Erythrocyte, absence of 1mM pyruvate, mean ± s.e.m., EC50 not resolved, read-out: MetHb EC50 - pyruvate): 0.1 ± 0.002 µM; EC50 (human erythrocytes; Homo sapiens, Erythrocyte, presence of 1mM pyruvate, mean ± s.e.m., EC50 not resolved, read-out: MetHb EC50 + pyruvate): 0.48 ± 0.01 µM; EC50 [3]: 361 ± 34 nM; EC50 [4]: 437 ± 83 nM
7 | O=C1C(P(=O)(O)O)CC(O)N1O (centres unmarked) [SF-2312, reference compound] | 18.5 | 2.8 | 27000 ± 2000 | 180000 ± 9300 | 6.6 | > 500 | > 500 | EC50 (P. falciparum strain 3D7; asexual P. falciparum, phosphonates, read-out: half maximal effective concentrations (EC50s), parasite growth): > 15000 nM
8 | CC1(P(=O)(O)O)CC(O)N(O)C1=O (centres unmarked) [MethylSF-2312] | 19.2 | 3.8 | 26000 ± 2900 | 130000 ± 3500 | 5.1 | > 500 | > 500 | 
9 | CC(C)OC(=O)C(C)NP(=O)(NC(C)C(=O)OC(C)C)C1CCCN(O)C1=O (centres unmarked) [SDR4] | 6.8 | 15.6 | 73000 ± 8700 | 32000 ± 2400 | 0.4 | > 500 | > 500 | 
10 | Cc1cc(Nc2ccc(S(F)(F)(F)(F)F)cc2)n2nc(C(C)(F)F)nc2n1 [DSM265] |  |  |  |  |  |  |  | EC50 (P. falciparum): 53 nM
11 | O=CC[C@@H](O)[C@H](O)[C@H](O)CO [Compound 2-DG, 2-deoxyglucose, reference compound] |  |  |  |  |  |  |  | effect on clinical score, overall survival, cerebral malaria (in words) (P. berghei ANKA; POM-HEX 30 mg/kg): did not improve; parasitemia (P. berghei ANKA; d4, blood smear Giemsa, treated from day 2, HEX 100 mg/kg, control 7.8±3.3%): 13.3±3.9%
12 | CC(C)OC(=O)C(C)NP(=O)(Oc1ccccc1)C1CCCN(O)C1=O (centres unmarked) [SDR6] | 8.3 | 10.4 | 60000 ± 13000 | 48000 ± 2800 | 0.8 | > 500 | > 500 | 
